The text below walks through data of USRE47193E1, “Selectively substituted quinoline compounds” (EISAI R&D MANAGEMENT CO., LTD., priority 2013, dated 2019).

As usually defined, the pIC50 is the IC50 on a negative log10 scale, so that one unit is a factor of ten.

pIC50: −log10 of the molar value. Values joined by “and” are separate entries in the source; they are usually repeats but may differ in a detail not shown here. Equal values may be shown once. Read-outs that look alike come from different tables or passages of the source.

The assay has as its target T1, Human TLR7 (Homo sapiens, UniProt Q9NYK1).
T1 construct: stably and individually express human TLR4, TLR7 or TLR9 full-length ORF cDNAs; host or cells: HEK-293 (ATCC) with ELAM-1 NF-kappaB luciferase reporter
T1 sequence (Q9NYK1 27-1049): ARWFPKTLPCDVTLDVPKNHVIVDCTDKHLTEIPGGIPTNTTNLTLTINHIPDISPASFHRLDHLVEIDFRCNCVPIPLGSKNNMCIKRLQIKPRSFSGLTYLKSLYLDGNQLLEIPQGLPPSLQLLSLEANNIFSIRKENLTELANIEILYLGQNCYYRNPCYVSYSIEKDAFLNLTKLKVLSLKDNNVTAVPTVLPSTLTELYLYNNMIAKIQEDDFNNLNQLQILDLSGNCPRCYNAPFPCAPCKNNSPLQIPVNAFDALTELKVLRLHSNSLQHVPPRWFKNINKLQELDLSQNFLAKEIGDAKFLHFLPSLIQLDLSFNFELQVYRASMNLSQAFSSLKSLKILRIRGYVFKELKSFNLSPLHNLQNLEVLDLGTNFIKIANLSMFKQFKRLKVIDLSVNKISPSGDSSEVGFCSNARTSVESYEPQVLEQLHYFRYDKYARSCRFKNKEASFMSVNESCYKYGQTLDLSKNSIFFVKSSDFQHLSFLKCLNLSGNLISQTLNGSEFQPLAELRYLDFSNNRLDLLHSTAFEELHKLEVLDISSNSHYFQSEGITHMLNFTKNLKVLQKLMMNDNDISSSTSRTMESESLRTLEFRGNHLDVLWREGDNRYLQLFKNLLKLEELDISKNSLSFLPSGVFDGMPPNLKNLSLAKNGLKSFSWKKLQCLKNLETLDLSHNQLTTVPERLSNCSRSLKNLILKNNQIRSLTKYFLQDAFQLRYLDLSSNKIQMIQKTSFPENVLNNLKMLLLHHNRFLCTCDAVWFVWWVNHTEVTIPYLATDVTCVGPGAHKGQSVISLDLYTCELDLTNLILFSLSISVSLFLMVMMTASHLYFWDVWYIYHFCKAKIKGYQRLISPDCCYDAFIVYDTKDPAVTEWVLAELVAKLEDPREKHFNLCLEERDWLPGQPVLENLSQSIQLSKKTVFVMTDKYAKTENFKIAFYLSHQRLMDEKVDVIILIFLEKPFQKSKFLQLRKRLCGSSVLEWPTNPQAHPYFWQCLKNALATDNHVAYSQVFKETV
Description: HEK-293 human TLR7 NF-kappaB luciferase reporter assay (CL097). It counts as cell-based. How it is done:
Effects on mouse TLR7 were also compared. Cells were stimulated overnight with TLR7/8 agonist CL097 at pre-determined ED70-80: 3 ug/ml for HEK-hTLR7, 1.5 ug/ml for HEK-mTLR7 and 12 ug/ml for HEK-hTLR8, before reading luminescence intensity. Three tests were performed and IC50 value was determined using Graphpad Prism 6 nonlinear regression curve fit.
HEK-293 cells (ATCC) were engineered to stably express a NF-kappaB transcription factor inducible E-selectin (ELAM-1) luciferase reporter derived from the plasmid pGL3 (Promega) containing base pairs −2241 bp to −254 bp from the promoter of the human E-selectin gene (Accession No. NM_000450). These cells were then subsequently engineered to stably and individually express human TLR4, TLR7 or TLR9 full-length ORF cDNAs. Human TLR4 cDNA (Accession No. NM_138554) was cloned into pcDNA 3.0 expression vector (Invitrogen). TLR4 transfected cells were also engineered to express human MD-2 co-receptor [MD-2 cDNA (Accession No. NM_015364) was cloned into the pEF-BOS vector] and were supplemented with 10 nM soluble CD14 (R&D Systems) in the media to optimize LPS responsiveness. Human TLR9 cDNA (Accession No. NM_017442) was cloned into the pBluescript II KS vector (Agilent). Human TLR7 cDNA (Accession No. NM_016562) was obtained from OriGene. HEK-293 cells stably expressing human TLR8 (Accession No. NM_138636) or mouse TLR7 (Accession No. NM_133211) were purchased from InvivoGen and were then stably transfected with pNiFty2(NF-kappaB)-luciferase reporter plasmid (InvivoGen). Each cell type was plated in Dulbecco's modified Eagle's medium (DMEM) containing 10% fetal bovine serum (FBS) at a density of 2.22×10^5 cells/ml into a 384-well plate and incubated for 2 days at 37° C., 5% CO2. Varying concentrations of antagonist compounds were then added. Cells were then incubated for another 30 minutes before adding the appropriate TLR agonist as follows (final concentrations indicated): lipopolysaccharide (LPS; Sigma) at 10 ng/ml for TLR4, CL097 (InvivoGen) at 3 ug/ml for human TLR7 and TLR8 and mouse TLR7, and CvG-2006-2A [sequence: […] (SEQ ID NO: 1) with phosphorothioate backbone, synthesized by Sigma-Aldrich] at 0.6 uM for TLR9.
On the technique in general: In a reporter assay the amount or activity of a reporter protein is the signal.

With `C[C@@H]1CN(c2ccc(C#N)c3ncccc23)C[C@H](C(=O)N[C@H]2CNC[C@H]2F)O1.Cl` [ER-899742, (2R,6R)-4-(8-cyanoquinolin-5-yl)-N-[(3S,4R)-4-fluoropyrrolidin-3-yl]-6-methylmorpholine-2-carboxamide hydrochloride], the pIC50 is 8.22 (IC50, HEK-293, ligand CL097, analyte NFkB-luciferase (Table 1)); 7.64 and 7.59 (IC50, HEK-hTLR7, CL097 3 ug/ml, individual tests 1-3); 7.62 (IC50 average, HEK-hTLR7, CL097 3 ug/ml, average of three tests).

On to `CCN(CCO)CCCC(C)Nc1ccnc2cc(Cl)ccc12` (centres unmarked) [HCQ, hydroxychloroquine, reference compound], for which the pIC50 (HEK-hTLR7, CL097 3 ug/ml, average of three tests, read-out: IC50 average) is 5.04; the pIC50 (HEK-hTLR7, CL097 3 ug/ml, individual tests 1-3, read-out: IC50) was 5.17 and 4.84 and 5.23.
